Reference: patent publication US20060241174A1, “Vitamin E tocotrienols inhibition of intracellularly obligate pathogen Chlamydia and methods of use” (priority 2005, published 2006)

Experiments:
C. trachomatis serovar K = experiment: Inclusion count by immunofluorescence in C. trachomatis-infected mouse macrophages (J774A.1) treated with delta tocotrienol; assay type: cell-based, Chlamydia trachomatis
Procedure: FIG. 3 illustrates Chlamydia-infected mouse macrophage cells treated with delta tocotrienol (400× magnification). Mouse macrophages (J774A. 1 cells) were pretreated with a 30 μmol/L concentration of delta tocotrienol in culture for 4 hours and infected with C. trachomatis SVK for 48 hours. Arrows indicate inclusions. Cells were viewed and digitally documented using a Zeiss LSM 510 Meta Confocal System at a magnification of 400×. White arrows point out characteristic inclusions (Scale indicates 50 μm).
FIG. 4 illustrates Chlamydia-infected mouse macrophage cells treated with delta tocotrienol (630× magnification). White arrows point to representative cells. Note numerous very small, unfused inclusions in A (Scale indicates 50 μm).
Chlamydial Strains: Stocks of C. trachomatis serovar K/VR887 were grown in J774A.1 cells without centrifuge assistance. Infected cells were lysed, this stock aliquoted and frozen down in SPG freeze medium (75.0 g sucrose, 0.52 g potassium phosphate, 1.22 g sodium phosphate dibasic, 0.72 g glutamic acid, diluted in […] ddH2O). These aliquots were stored in liquid N2 or at −80° C., and later thawed for use to infect monolayers.
Cell Lines Used: Mouse macrophages (J774A.1), human mammary tumor cells (MCF-7), and human epithelial cells (Hep-2), were obtained from the American Type Culture collection. Human mammary tumor cells (TMX2-28) were a kind gift from Dr. Arcaro, and human B-lymphocytes (JY) were a kind gift from Dr. Eric Martz. All cell lines were maintained in Richter's improved MEM insulin (IMEMZO, Irvine Scientific, Santa Ana, Calif.) with 5% fetal bovine serum (FBS, Atlanta Biologicals, Norcross, Ga.). Cells were grown to 80% confluence on 12 mm coverslips in 12 well plates (Becton Dickinson Labware, Franklin Lakes, N.J.). A dilution of 1:125 or 1:200 of the C. trachomatis serovar K stock was made using the standard complete cycloheximide overlay media (Bio-Whittaker, Walkersville, Md.) containing 10% FBS, and 1× L-glutamine (CCOM). This was layered onto the coverslip containing monolayers, and incubated for 24-48 hours at 37° C. with 5% CO2. Coverslips with the cell monolayers were harvested, rinsed with phosphate buffered saline (PBS), fixed with 70% cold methanol, stored and subsequently immunostained.
Delta Tocotrienol Treatment: A stock of delta tocotrienol (98% purity, American River Nutrition, Hadley, Mass.) was diluted to 1 mg/1 ml in absolute ethanol [EtOH]. Confluent monolayers of J774A.1, MCF-7, TMX2-28, JY, or Hep-2 cells were treated with 5, 10, 20, 30, or 40 μmol/L concentrations of delta tocotrienol. Treatment occurred 5 hours prior to infection with C. trachomatis serovar K, at point of infection, or three hours post-infection.
Immunostaining: Briefly, infected cells were immunostained with a 1:2 dilution of guinea pig anti-chlamydia polyclonal antibody (Biomeda, Foster City, Calif.), or a 1:125 dilution of rabbit anti-chlamydia EB whole serum for 1 hour at 37° C. Following PBS rinses X3, the bound antibodies were detected using a 1:100 dilution of FITC-conjugated donkey anti-guinea pig or a 1:125 dilution of TRITC-conjugated goat anti-rabbit secondary antibodies (Jackson ImmunoResearch, West Grove, Pa.). Following incubation for 1 hour at room temperature and 3 rinses with PBS, coverslips were mounted onto slides using Fluoromount-G (Southern Biotechnology Associates Inc., Birmingham, Ala.) or Vectashield® Mounting Medium with DAPI (Vector Laboratories, Inc., Burlingame, Calif.), and were then sealed. Initially, slides were examined at 400× using a Nikon LABPHOT-2. For photography, slides were assessed in the Massachusetts Central Microscopy Facility using a Zeiss LSM 510 Meta Confocal System and 630× magnification. Images were captured, and as relevant, merged using the Confocal Assistant™ version 4.02 Image Processing Software.
Counts on all coverslips with experimental conditions as in FIG. 3 and 4 were done for the average of 10 fields of view. […]

Chlamydia = experiment: Detection of Chlamydia-infected white blood cells in hyperlipidemic patients with delta-tocotrienol supplementation; assay type: in vivo, human
Procedure: FIG. 6 illustrates detection and quantification of Chlamydia-infected white blood cells in hyperlipidemic patients with delta-tocotrienol supplementation. Buffy coats of hyperlipidemic patients were immunostained, and for each sample, aliquots of 10,000 cells were assessed. A dotplot of a hyperlipidemic patient prior to supplementation with delta-tocotrienol is shown in the left panel, and a dotplot of a hyperlipidemic patient after 2 months of delta-tocotrienol supplementation (100 mg/day) is shown in the right panel.
Flow Cytometry Assessment of WBC: Flow cytometry (FC) quantification of Chlamydia-infected peripheral WBC used PBS rinsed buffy coat (BC) from HP samples. The BC cells were fixed and permeabilized (1% paraformaldehyde and 1% Triton X-100, 10 min. at RT; Aldrich Chemical Company, Inc., Milwaukee, Wis.). BCs were separately incubated for 1 hour with a 1:200 dilution of rabbit anti-Chlamydia primary antibody (Biodesign International, Saco, Me.) followed by a 1 hour incubation with a 1:150 dilution of FITC-conjugated goat anti-rabbit IgG (H+L) (Jackson ImmunoResearch, West Grove, Pa.), PBS rinsed X3, and mono-dispersed by passage through a nylon mesh filter (Lab-Line Instruments Inc, Melrose Park, Ill.). Sufficient WBCs were added to obtain 10,000 cells/tube and samples were analyzed for carriage of Chlamydia-infected cells by FACScan (Becton, Dickinson and Company, Franklin Lakes, N.J.).
Detection of Chlamydia-Infected White Blood Cells (WBC): Smears of whole blood from each 10 ml hyperlipidemic HP blood sample, average donor age 54 years, were fixed with 70% MEOH for subsequent staining. Immunostaining used a 1:125 dilution of rabbit polyclonal anti-Chlamydia EB antibody followed by a 1:125 dilution of TRITC-conjugated goat anti-rabbit antibody (H+L) (Jackson ImmunoResearch, West Grove, Pa.). Slides were incubated at room temperature for 1 hour with each diluted antibody, rinsed, mounted and sealed as described above. Digital images of optical sections through these samples were acquired with a Zeiss LSM 510 Meta Confocal System.
In a clinical study, buffy coats from blood samples drawn both before and after delta-tocotrienol supplementation were immunostained for detection of Chlamydia-infected cells. The samples were tested for LDL levels both before and after delta-tocotrienol supplementation.

[1] = First Infection, J774A.1, 30 μmol/L
[2] = Second Infection, J774A.1, 30 μmol/L
[3] = Third Infection, J774A.1, 30 μmol/L

## delta tocotrienol
Cells in culture
  cell number compared to cells grown in culture medium: no difference in cell number
C. trachomatis serovar K; 20-40 μmol/L delta tocotrienol, Chlamydia-specific immunofluorescence staining
  morphology of chlamydial inclusions (FIG. 4): immature, small, and less round
C. trachomatis serovar K; [1]
  Inclusions (per field of view), Small (≦10 μm): 4.5 per field of view
  Inclusions (per field of view), Total: 5.2 per field of view
  Inclusions Total/Cell: 0.058
C. trachomatis serovar K; First Infection, J774A.1, 30 μmol/L delta tocotrienol, average of 10 fields of view
  Inclusions (per field of view), Large (15-20 μm): 0.7 per field of view
C. trachomatis serovar K; First Infection, treated vs control, J774A.1, 30 μmol/L
  Percent Inhibition: 52.3%
C. trachomatis serovar K; J774A.1, 30 μmol/L pretreatment, 48 hours infection, 400× magnification
  large, mature inclusions (FIG. 3): no evidence of large, mature inclusions
C. trachomatis serovar K; J774A.1, control cells 20 μm
  size of large inclusions in the tocotrienol-treated cells: 10-15 μm
C. trachomatis serovar K; J774A.1, optical sections, treated vs control
  inclusions thinner than in control cells (Z-axis): 3 fold
C. trachomatis serovar K; J774A.1, treated vs control
  inclusions smaller than in control cells (X-Y axes): 2 to 3 fold
C. trachomatis serovar K; Second Infection (supernatant transfer to uninfected treated cells), J774A.1, 30 μmol/L
  Inclusions (per field of view), Large (15-20 μm): 1.4 per field of view
C. trachomatis serovar K; [2]
  Inclusions (per field of view), Small (≦10 μm): 0.6 per field of view
  Inclusions (per field of view), Total: 2.0 per field of view
  Inclusions Total/Cell: 0.032
C. trachomatis serovar K; Second Infection, treated vs control, J774A.1, 30 μmol/L
  Percent Inhibition: 43.8%
C. trachomatis serovar K; [3]
  Inclusions (per field of view), Large (15-20 μm): 0.7 per field of view
  Inclusions (per field of view), Small (≦10 μm): 1.1 per field of view
  Inclusions (per field of view), Total: 1.8 per field of view
  Inclusions Total/Cell: 0.016
C. trachomatis serovar K; Third Infection, treated vs control, J774A.1, 30 μmol/L
  Percent Inhibition: 39.0%
C. trachomatis serovar K; calculated (2×3 to 3×3)
  chlamydial inclusion volume smaller than control: 6-9 fold
C. trachomatis serovar K; summary of Table 1, 30 μmol/L
  percent inhibition of inclusion formation in tocotrienol-treated as compared to untreated cells: 40-50%
C. trachomatis serovar K; tocotrienol-treated cells vs control, FIG. 3, Table 1
  number of chlamydial inclusions (immunofluorescence staining): decreased significantly
Chlamydia; Patient 1, status before: negative
  Chlamydial Infection Status after Delta-Tocotrienol Supplementation: negative
Chlamydia; Patient 2, status before: positive
  Chlamydial Infection Status after Delta-Tocotrienol Supplementation: negative
Chlamydia; Patient 3, status before: strong positive
  Chlamydial Infection Status after Delta-Tocotrienol Supplementation: negative
Chlamydia; hyperlipidemic patient, 2 months supplementation, 100 mg/day, buffy coat, 10,000 cells
  Chlamydia-infected white blood cells by flow cytometry (FIG. 6): reduced the granularity and amount of Chlamydia-infected cells
